Data from patent US12661353B2, “SPT5 inhibitors and uses thereof” (Yeda Research and Development Co. Ltd., priority 2020, dated 2026).

Columns and labels:
wild type (Q7) Htt = experiment: Newly synthesized Htt transcripts, 4sU metabolic labeling, Q7 cells; type: cell-based, mouse; conditions: 4sU for 2 hours
Protocol: Metabolic labeling of newly synthesized RNA with 4-thiouridine (4sU)—STHdh Q111 and STHdh Q7 cells (collected from 10 cm dishes) were treated for 30 minutes with DMSO (vehicle control) or the tested SPI compound (e.g., SPJ-21). Following, 4-thiouridine (4sU, 150 μM final concentration) was added for additional 2 hours. The labeling was terminated by removing the 4sU-containing medium and washing the cells 3 times with phosphate-buffered saline (PBS). Total RNA was extracted as described above. 10 μg of RNA were biotinylated using biotin-HPDP (1:5; A8008, APExBIO) for 1.5 hours at room temperature and the biotinylated RNA was purified using chloroform and isopropanol extraction and dissolved in DEPC water. Following, the biotinylated RNA was captured by incubation with Streptavidin-coated magnetic beads (NEB, S1420S) for 30 minutes at room temperature in constant rotation. Bound RNA was eluted with 100 μl of 0.1 M fresh DTT. […]
Huntington's disease (HD) is an inherited genetic disorder caused by expansion trinucleotide CAG repeats (36 and higher) encoding glutamine (Q) in the huntingtin (Htt) gene. […] The two cell lines were treated for 48 hours with the identified SPIs and following the levels of Htt mRNA were determined. […] Moreover, the levels measured from the second exon relative to the first were fairly higher in Q7 compared to Q111 and this small difference was kept all along the gene. […]

[1] = system: replication-dependent histone genes; experiment: RNA-seq of 4sU metabolic labeling: replication-dependent histone genes; type: cell-based, human
Protocol: High-throughput sequencing of the total, labeled and Run-On transcripts (RNA-Seq and Gro-seq)—_The RNA-Seq libraries were prepared by the Genomics unit in The Nancy and Stephen Grand Israel National Center for Personalized Medicine (G-INCPM, Weizmann Institute of Science). Samples from 2-hour SPI treatment were prepared using in-house mRNA Seq protocol and polyA capturing and those from 24-hpur and 4sU treatments were prepared using the same protocol w/o PolyA capture (with random hexamers), and sequenced using an Illumina HiSeq 2500 system yielding about 30M SE reads of 61 bases. The GRO-seq RNA samples were reverse transcribed and amplified (15 cycles) using in-house mRNA Seq protocol w/o PolyA capture (with random hexamers) and sequenced in one lane using an Illumina HiSeq High Output (480 million reads, yielding more than 100M SE reads of 47 bases per sample). Each RNA-Seq analysis was carried out using two independent replicates.
RNA-Seq and GRO-seq Bioinformatics analysis—_For the analysis of the 24 h, 4sU and GRO-seq data, we used the RNA-Seq pipeline of UTAP (Kohen et al. 2019) to determine the differentially expressed genes. For the 2-hour data, reads were mapped to the H. sapiens GRCh38 reference genome using STAR (Dobin et al., 2013) and expression levels for each gene were quantified using htseq-count (Anders et al., 2015). Differentially expressed genes were identified using DESeq2 (Love et al., 2014). […] The reads coverage was calculated using bed files containing the desired genomic regions and orientation (awk command) and the bedtools coverage tool (Quinlan et al., 2010).
Since the RNA-seq following treatment with SPI-21 detects only polyadenylated transcripts and the treatment was effected for 2 hours, during which only a fraction of cells is in S-phase, an effect on histone genes was not found. Thus, to investigate further the regulation of histone genes by Spt5 using the identified SPIs, cells were treated for 24 hours with SPI-21 or SPI-18, to allow all cells to pass S-phase at least once. Following, mRNA was extracted and cDNA was prepared using random hexamers and the levels of 4 histone genes were determined. […] Spt5 requirement for expression of histone genes cannot be explained by a positive effect on elongation or mRNA processing since histone genes are very short and are intron-less. […] To resolve the discrepancy between the effect of Spt5 inhibition on steady-state levels and synthesis rate, the possibility that Spt5 is required for the processing of histone mRNAs was considered. In addition to the conserved stem-loop, histone genes have a canonical polyadenylation signal downstream of the stem-loop structure (FIG. 5B). It was therefore considered that Spt5 controls the choice between 3′ end processing via the stem-loop pathway or the polyadenylation pathway of histone pre-mRNAs. To this end, cDNA prepared by random hexamer and Poly-T the ratio between total and poly-A tailed histone genes was determined. […] Thus, the reduction in the histone gene expression upon Spt5 inhibition may be associated, at least in part, to a defect in 3′ end processing.

## COc1ccc(C=CC(=O)c2cc(O)ccc2O)cc1 [SPI-21]
Wild type (Q7) Htt
  levels of newly synthesized Q7 Htt: not Q7 Htt were diminished
[1]; 4sU labelling
  HIST1H1B level, RNA-seq: 1.3
  HIST1H1E level, RNA-seq: 1.3
  HIST1H2AG level, RNA-seq: 1.3
  HIST1H2AH level, RNA-seq: 1.4
  HIST1H2AI level, RNA-seq: 1.4
  HIST1H2AK level, RNA-seq: 1.1
  HIST1H2AL level, RNA-seq: 1.1
  HIST1H2BF level, RNA-seq: 1.3
  HIST1H3A level, RNA-seq: 1.2
  HIST1H3B level, RNA-seq: 1.4
  HIST1H3D level, RNA-seq: 1.4
  HIST1H3F level, RNA-seq: 1.3
  HIST1H3G level, RNA-seq: 1.4
  HIST1H4A level, RNA-seq: 1.7
  HIST1H4B level, RNA-seq: 1.4
  HIST1H4C level, RNA-seq: 1.5
  HIST1H4D level, RNA-seq: 1.6
  HIST1H4H level, RNA-seq: 1.3
  HIST2H2AC level, RNA-seq: 1.3
  HIST2H3D level, RNA-seq: 1.4
[1]; 4sU metabolic labeling
  histone gene transcription, in words: moderate increase
